Measurements as given in ChEMBL document CHEMBL1201862, “PubChem BioAssay data set” (2004).
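All cell lines were grown in 96-well plates and treated with compound for 48 hours. Here, GI50 denotes the concentration required for 50% inhibition of growth.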 Activity calls are given as the source filed them. Rule as the data show it: active = GI50 up to about 1.1 µM and inactive = higher.

Tests used:
Assay in all cases: growth of human tumour cells (NCI), 48 h
U-251 = test system: U-251
OVCAR-8 = test system: OVCAR-8
OVCAR-5 = test system: OVCAR-5
HCC 2998 = test system: HCC 2998
BT-549 = test system: BT-549
SF-539 = test system: SF-539
DU-145 = test system: DU-145
M14 = test system: M14
SK-MEL-2 = test system: SK-MEL-2
UACC-62 = test system: UACC-62
UO-31 = test system: UO-31
NCI/ADR-RES = test system: NCI/ADR-RES
SK-MEL-28 = test system: SK-MEL-28
SK-MEL-5 = test system: SK-MEL-5
SF-295 = test system: SF-295
HT-29 = test system: HT-29
UACC-257 = test system: UACC-257
786-0 = test system: 786-0
KM12 = test system: KM12
EKVX = test system: EKVX
MDA-MB-231 = test system: MDA-MB-231
COLO 205 = test system: COLO 205
T47D = test system: T47D
Hs-578T = test system: Hs-578T
SN12C = test system: SN12C
HOP-62 = test system: HOP-62
MDA-MB-435 = test system: MDA-MB-435
SNB-75 = test system: SNB-75
HCT-15 = test system: HCT-15
HCT-116 = test system: HCT-116
Malme-3M = test system: Malme-3M
LOX IMVI = test system: LOX IMVI
NCI-H522 = test system: NCI-H522
CAKI-1 = test system: CAKI-1
NCI-H226 = test system: NCI-H226
SF-268 = test system: SF-268
NCI-H23 = test system: NCI-H23
PC-3 = test system: PC-3
HL-60 = test system: HL-60
CCRF-CEM = test system: CCRF-CEM
IGROV-1 = test system: IGROV-1
SW-620 = test system: SW-620
MCF7 = test system: MCF7
A498 = test system: A498
A549 = test system: A549
NCI-H460 = test system: NCI-H460
SNB-19 = test system: SNB-19
OVCAR-4 = test system: OVCAR-4
RXF 393 = test system: RXF 393
SR = test system: SR
MOLT-4 = test system: MOLT-4
K562 = test system: K562
SK-OV-3 = test system: SK-OV-3
MDA-N = test system: MDA-N
OVCAR-3 = test system: OVCAR-3
ACHN = test system: ACHN
RPMI-8226 = test system: RPMI-8226

Cc1cccc2c1C(=O)[C@@](C)([C@]1(C)Nc3cccc(C)c3C1=O)N2
GI50 (U-251): > 100 µM (inactive)
GI50 (OVCAR-8): > 100 µM (inactive)
GI50 (OVCAR-5): > 100 µM (inactive)
GI50 (HCC 2998): > 100 µM (inactive)
GI50 (BT-549): > 100 µM (inactive)
GI50 (SF-539): > 100 µM (inactive)
GI50 (DU-145): > 100 µM (inactive)
GI50 (M14): > 100 µM (inactive)
GI50 (SK-MEL-2): > 100 µM (inactive)
GI50 (UACC-62): > 100 µM (inactive)
GI50 (UO-31): > 100 µM (inactive)
GI50 (NCI/ADR-RES): > 100 µM (inactive)
GI50 (SK-MEL-28): > 100 µM (inactive)
GI50 (SK-MEL-5): 96.6 µM (inactive)
GI50 (SF-295): > 100 µM (inactive)
GI50 (HT-29): > 100 µM (inactive)
GI50 (UACC-257): > 100 µM (inactive)
GI50 (786-0): > 100 µM (inactive)
GI50 (KM12): > 100 µM (inactive)
GI50 (EKVX): > 100 µM (inactive)
GI50 (MDA-MB-231): > 100 µM (inactive)
GI50 (COLO 205): > 100 µM (inactive)
GI50 (T47D): > 100 µM (inactive)
GI50 (Hs-578T): > 100 µM (inactive)
GI50 (SN12C): > 100 µM (inactive)
GI50 (HOP-62): > 100 µM (inactive)
GI50 (MDA-MB-435): 31.1 µM (inactive)
GI50 (SNB-75): 30.4 µM (inactive)
GI50 (HCT-15): > 100 µM
GI50 (HCT-116): > 100 µM (inactive)
GI50 (Malme-3M): > 100 µM (inactive)
GI50 (LOX IMVI): > 100 µM (inactive)
GI50 (NCI-H522): > 100 µM (inactive)
GI50 (CAKI-1): > 100 µM (inactive)
GI50 (NCI-H226): > 100 µM (inactive)
GI50 (SF-268): > 100 µM (inactive)
GI50 (NCI-H23): > 100 µM (inactive)
GI50 (PC-3): 38.7 µM (inactive)
GI50 (HL-60): 0.499 µM (active)
GI50 (CCRF-CEM): 49.4 µM (inactive)
GI50 (IGROV-1): > 100 µM (inactive)
GI50 (SW-620): > 100 µM (inactive)
GI50 (MCF7): > 100 µM (inactive)
GI50 (A498): > 100 µM (inactive)
GI50 (A549): > 100 µM (inactive)
GI50 (NCI-H460): > 100 µM (inactive)
GI50 (SNB-19): > 100 µM (inactive)
GI50 (OVCAR-4): > 100 µM (inactive)
GI50 (RXF 393): > 100 µM (inactive)
GI50 (SR): > 100 µM (inactive)
GI50 (MOLT-4): > 100 µM (inactive)
GI50 (K562): > 100 µM (inactive)
GI50 (SK-OV-3): > 100 µM (inactive)
GI50 (MDA-N): 98.4 µM (inactive)
GI50 (OVCAR-3): > 100 µM (inactive)
GI50 (ACHN): > 100 µM (inactive)
GI50 (RPMI-8226): 11 µM (inactive)
